Usually Ki stands for the equilibrium dissociation constant of an inhibitor or competing ligand from its target. In general, half-life refers to the time needed for the level to fall by half in the phase considered. A low value points to fast loss.

We go through 25 molecules from ChEMBL document CHEMBL3091452, “A prodrug approach toward cancer-related carbonic anhydrase inhibition” (J Med Chem, 2013).

Bounds are passed on as bounds.

Some targets named below: Carbonic anhydrase 9 (Homo sapiens, UniProt Q16790); Carbonic anhydrase 12 (Homo sapiens, UniProt O43570); Carbonic anhydrase 2 (Homo sapiens, UniProt P00918); Carbonic anhydrase 1 (Homo sapiens, UniProt P00915).
A further data set addresses Albumin (Homo sapiens, UniProt P02768). Kind of data set: Binding affinity to human serum albumin by chromatographic analysis. The note with it: isolated protein. In kind it is ADME.
Another data set has as its target Carbonic anhydrase 14 (Homo sapiens, UniProt Q9ULX7). Kind of data set: Inhibition of human carbonic anhydrase 14 by stopped-flow CO2 hydration assay.
Data set [1] can be described thus: Degradation half life in human plasma at 5000 ng/mL by UPLC-MS analysis. In kind it is ADME, cell-free.
A short description of data set [2]: Permeability of the compound in human Caco2 cells assessed as mass balance in diffusion chamber at 15 uM after 90 mins. To be noted: Caco-2, read-out: permeability. The format is ADME, cell-based. In general terms: Caco-2 cells form a polarised layer with tight junctions and transporters.
Data set [3] can be described thus: Intrinsic clearance in human liver microsomes at 1 uM after 2 to 60 mins by LCMS analysis in presence of NADPH. The format is ADME. To be noted: read-out: CLH. Background: Microsomes from liver hold many membrane-bound enzymes, among them those of drug oxidation.
Data set [4] in a line: Permeability of the compound in human Caco2 cells assessed as mass balance in diffusion chamber at 20 uM after 90 mins. In kind it is ADME, cell-based. To be noted: Caco-2, read-out: permeability.
The nature of data set [5]: Intrinsic clearance in human liver microsomes at 1 uM after 2 to 60 mins by LCMS analysis in absence of NADPH. In kind it is ADME. To be noted: read-out: CLH.
The nature of data set [6]: Solubility of the compound in HEPES buffer at pH 7.4. In kind it is physicochemical.
The nature of data set [7]: Permeability of the compound in human Caco2 cells assessed as mass balance in diffusion chamber at 8 uM after 90 mins. In kind it is ADME, cell-based. To be noted: Caco-2, read-out: permeability.

Chain of Carbonic anhydrase 1 (P00915 whole entry): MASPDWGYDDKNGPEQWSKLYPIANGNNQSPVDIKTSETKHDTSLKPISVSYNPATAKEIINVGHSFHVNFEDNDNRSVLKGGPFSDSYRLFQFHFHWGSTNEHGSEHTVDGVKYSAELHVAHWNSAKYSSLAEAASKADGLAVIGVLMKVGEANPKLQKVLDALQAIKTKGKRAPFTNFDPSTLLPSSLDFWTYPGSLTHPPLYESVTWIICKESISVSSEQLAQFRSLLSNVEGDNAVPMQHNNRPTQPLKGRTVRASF
Chain of Carbonic anhydrase 12 (O43570 whole entry): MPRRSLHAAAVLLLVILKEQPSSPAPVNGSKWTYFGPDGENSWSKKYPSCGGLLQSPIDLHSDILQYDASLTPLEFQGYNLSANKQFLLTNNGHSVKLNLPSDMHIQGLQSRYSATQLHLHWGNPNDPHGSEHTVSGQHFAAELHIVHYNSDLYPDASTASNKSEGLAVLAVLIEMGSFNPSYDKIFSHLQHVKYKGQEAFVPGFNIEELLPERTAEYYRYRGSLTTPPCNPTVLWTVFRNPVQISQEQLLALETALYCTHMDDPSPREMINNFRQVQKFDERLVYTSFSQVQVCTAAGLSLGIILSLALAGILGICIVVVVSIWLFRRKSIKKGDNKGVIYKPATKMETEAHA
Chain of Albumin (P02768 whole entry): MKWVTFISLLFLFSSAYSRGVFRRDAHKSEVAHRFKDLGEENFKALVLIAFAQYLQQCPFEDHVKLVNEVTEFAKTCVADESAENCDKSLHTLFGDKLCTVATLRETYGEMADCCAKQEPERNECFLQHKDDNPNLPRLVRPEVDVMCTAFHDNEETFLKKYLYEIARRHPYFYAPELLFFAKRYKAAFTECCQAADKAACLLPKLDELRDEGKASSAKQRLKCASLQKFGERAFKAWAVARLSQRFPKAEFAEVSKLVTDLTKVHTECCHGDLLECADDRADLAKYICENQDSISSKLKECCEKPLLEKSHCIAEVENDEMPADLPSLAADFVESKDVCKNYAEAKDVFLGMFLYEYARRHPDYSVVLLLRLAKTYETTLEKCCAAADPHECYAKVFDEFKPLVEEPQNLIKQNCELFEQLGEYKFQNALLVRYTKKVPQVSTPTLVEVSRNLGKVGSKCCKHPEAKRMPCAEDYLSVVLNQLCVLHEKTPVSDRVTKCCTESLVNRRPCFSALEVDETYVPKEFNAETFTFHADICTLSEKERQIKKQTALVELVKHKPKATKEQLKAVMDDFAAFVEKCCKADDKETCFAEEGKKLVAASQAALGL
Chain of Carbonic anhydrase 14 (Q9ULX7 whole entry): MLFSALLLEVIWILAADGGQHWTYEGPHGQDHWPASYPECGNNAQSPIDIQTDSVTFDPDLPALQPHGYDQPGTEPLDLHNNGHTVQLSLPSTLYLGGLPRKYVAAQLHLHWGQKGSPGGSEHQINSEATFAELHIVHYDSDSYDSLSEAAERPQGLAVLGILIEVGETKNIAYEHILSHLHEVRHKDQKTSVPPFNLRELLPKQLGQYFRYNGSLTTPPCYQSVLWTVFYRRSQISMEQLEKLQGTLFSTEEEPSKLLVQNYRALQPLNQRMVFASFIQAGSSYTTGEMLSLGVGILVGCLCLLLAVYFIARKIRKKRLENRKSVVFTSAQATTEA
Description for Carbonic anhydrase 12: Inhibition of human carbonic anhydrase 12 by stopped-flow CO2 hydration assay
Description for Carbonic anhydrase 2: Inhibition of human carbonic anhydrase 2 by stopped-flow CO2 hydration assay
Description for Carbonic anhydrase 9: Inhibition of human carbonic anhydrase 9 by stopped-flow CO2 hydration assay

On to `C#Cc1cccc(S(N)(=O)=O)c1`, for which the Ki on Carbonic anhydrase 9 worked out at 65.7 nM.
Take `CC(=O)OC[C@H]1O[C@@H](n2cc(-c3ccc(S(N)(=O)=O)cc3)nn2)[C@H](OC(C)=O)[C@@H](OC(C)=O)[C@@H]1OC(C)=O`: the Activity on Albumin was found to be 30%. The Ki at Carbonic anhydrase 14 turned out to be 104 nM; on Carbonic anhydrase 12, 67.1 nM. The half-life at 5000 ng/mL in data set [1] is 7 min. The recovery at 1.5 h, 15 µM in data set [2] was determined as 81%.
`NS(=O)(=O)c1ccc(-c2cn([C@@H]3O[C@H](CO)[C@@H](O)[C@H](O)[C@H]3O)nn2)cc1` had an Activity on Albumin of 13%. The microsomal CLint at 1 µM in data set [3] and in data set [5] was under 7 µL/min/mg throughout. Moreover, the inhibitory constant (Ki) on Carbonic anhydrase 14 came to 50.3 nM; at Carbonic anhydrase 12, 40.1 nM. Besides, in data set [4], the recovery at 1.5 h, 20 µM came to 100%. In addition, the half-life at 5000 ng/mL in [1] was over 250 min.
For the molecule `NS(=O)(=O)c1ccc(-c2cn([C@@H]3O[C@H](CO)[C@H](O)[C@H](O)[C@H]3O)nn2)cc1`, the Ki on Carbonic anhydrase 2 is 6.7 nM; on Carbonic anhydrase 14 it was 20.1 nM; at Carbonic anhydrase 1, 7950 nM; on Carbonic anhydrase 9, 126 nM; on Carbonic anhydrase 12 it was 36.3 nM.
For `C#Cc1ccc(S(N)(=O)=O)cc1`, on Carbonic anhydrase 9, the Ki was determined as 54 nM.
Regarding `CC(C)CC(=O)OC[C@H]1O[C@@H](n2cc(-c3cccc(S(N)(=O)=O)c3)nn2)[C@H](OC(=O)CC(C)C)[C@@H](OC(=O)CC(C)C)[C@H]1OC(=O)CC(C)C`, the Ki on Carbonic anhydrase 9 is 254 nM.
Molecule `CCCCC(=O)OC[C@H]1O[C@@H](n2cc(-c3cccc(S(N)(=O)=O)c3)nn2)[C@H](OC(=O)CCCC)[C@@H](OC(=O)CCCC)[C@H]1OC(=O)CCCC` registered a Ki on Carbonic anhydrase 9 of 800 nM.
For the molecule `CCCC(=O)OC[C@H]1O[C@@H](n2cc(-c3cccc(S(N)(=O)=O)c3)nn2)[C@H](OC(=O)CCC)[C@@H](OC(=O)CCC)[C@H]1OC(=O)CCC`, on Carbonic anhydrase 9, the Ki was found to be 69.2 nM.
`CCC(=O)OC[C@H]1O[C@@H](n2cc(-c3cccc(S(N)(=O)=O)c3)nn2)[C@H](OC(=O)CC)[C@@H](OC(=O)CC)[C@H]1OC(=O)CC`: the affinity on Carbonic anhydrase 9 corresponds to a Ki of 126 nM.
Consider `CC(=O)OC[C@H]1O[C@@H](n2cc(-c3cccc(S(N)(=O)=O)c3)nn2)[C@H](OC(C)=O)[C@@H](OC(C)=O)[C@H]1OC(C)=O`, for which, on Carbonic anhydrase 9, the Ki amounted to 943 nM.
The same measure, in the same setting: then `NS(=O)(=O)c1cccc(-c2cn([C@@H]3O[C@H](CO)[C@H](O)[C@H](O)[C@H]3O)nn2)c1`, with 590 nM.
Take `CC(C)CC(=O)OC[C@H]1O[C@@H](n2cc(-c3ccc(S(N)(=O)=O)cc3)nn2)[C@H](OC(=O)CC(C)C)[C@@H](OC(=O)CC(C)C)[C@H]1OC(=O)CC(C)C`: the inhibitory constant (Ki) at Carbonic anhydrase 2 was 37.9 nM; on Carbonic anhydrase 14, 15.9 nM; on Carbonic anhydrase 1 it was 3210 nM; at Carbonic anhydrase 9, 374 nM; at Carbonic anhydrase 12, 23.3 nM.
Take `CCCCC(=O)OC[C@H]1O[C@@H](n2cc(-c3ccc(S(N)(=O)=O)cc3)nn2)[C@H](OC(=O)CCCC)[C@@H](OC(=O)CCCC)[C@H]1OC(=O)CCCC`: the Ki turned out to be 73.6 nM at Carbonic anhydrase 2, 67.3 nM on Carbonic anhydrase 14, 2130 nM at Carbonic anhydrase 1 and 31 nM on Carbonic anhydrase 12.
Taken in the same sequence, the figures for `CCCC(=O)OC[C@H]1O[C@@H](n2cc(-c3ccc(S(N)(=O)=O)cc3)nn2)[C@H](OC(=O)CCC)[C@@H](OC(=O)CCC)[C@H]1OC(=O)CCC` were 6.9 nM, 35.6 nM, 257 nM and 9.5 nM.
`CCC(=O)OC[C@H]1O[C@@H](n2cc(-c3ccc(S(N)(=O)=O)cc3)nn2)[C@H](OC(=O)CC)[C@@H](OC(=O)CC)[C@H]1OC(=O)CC`: the inhibitory constant (Ki) stood at 8.1 nM on Carbonic anhydrase 2; 10.9 nM at Carbonic anhydrase 14; 78.8 nM on Carbonic anhydrase 1; 5.1 nM at Carbonic anhydrase 9; 5.4 nM on Carbonic anhydrase 12.
`CC(C)CC(=O)OC[C@H]1O[C@@H](n2cc(-c3cccc(S(N)(=O)=O)c3)nn2)[C@H](OC(=O)CC(C)C)[C@@H](OC(=O)CC(C)C)[C@@H]1OC(=O)CC(C)C` gave a Ki on Carbonic anhydrase 9 of 724 nM.
The same measure, in the same setting: the result for `CCCCC(=O)OC[C@H]1O[C@@H](n2cc(-c3cccc(S(N)(=O)=O)c3)nn2)[C@H](OC(=O)CCCC)[C@@H](OC(=O)CCCC)[C@@H]1OC(=O)CCCC` reads 402 nM.
`CCCC(=O)OC[C@H]1O[C@@H](n2cc(-c3cccc(S(N)(=O)=O)c3)nn2)[C@H](OC(=O)CCC)[C@@H](OC(=O)CCC)[C@@H]1OC(=O)CCC` had a Ki on Carbonic anhydrase 9 of 583 nM.
With `CC(=O)OC[C@H]1O[C@@H](n2cc(-c3cccc(S(N)(=O)=O)c3)nn2)[C@H](OC(C)=O)[C@@H](OC(C)=O)[C@@H]1OC(C)=O`, at Carbonic anhydrase 9, the Ki was 480 nM.
`CCC(=O)OC[C@H]1O[C@@H](n2cc(-c3cccc(S(N)(=O)=O)c3)nn2)[C@H](OC(=O)CC)[C@@H](OC(=O)CC)[C@@H]1OC(=O)CC` registered a Ki at Carbonic anhydrase 9 of 874 nM.
As for `CC(C)CC(=O)OC[C@H]1O[C@@H](n2cc(-c3ccc(S(N)(=O)=O)cc3)nn2)[C@H](OC(=O)CC(C)C)[C@@H](OC(=O)CC(C)C)[C@@H]1OC(=O)CC(C)C`, on Albumin, the Activity was over 99%. Moreover, the microsomal CLint at 1 µM in data set [3] and in [5] was under 7 µL/min/mg each time. Moreover, the solubility entry in [6] was “Insoluble”. Further, the Ki at Carbonic anhydrase 2 was 440 nM; on Carbonic anhydrase 14, 40.1 nM; on Carbonic anhydrase 1 it was 9440 nM; on Carbonic anhydrase 9, 426 nM; on Carbonic anhydrase 12, 52 nM. The half-life at 5000 ng/mL in data set [1] was over 250 min.
The molecule `CCCCC(=O)OC[C@H]1O[C@@H](n2cc(-c3ccc(S(N)(=O)=O)cc3)nn2)[C@H](OC(=O)CCCC)[C@@H](OC(=O)CCCC)[C@@H]1OC(=O)CCCC` came in with an Activity at Albumin of over 99%. In addition, the microsomal CLint at 1 µM in [3] and in data set [5] was under 7 µL/min/mg throughout. Besides, the solubility result in data set [6] is listed as “Insoluble”. Besides, the Ki worked out at 573 nM on Carbonic anhydrase 2, 176 nM on Carbonic anhydrase 14, 9230 nM at Carbonic anhydrase 1 and 52.7 nM at Carbonic anhydrase 12. In data set [1], this molecule came in with a half-life at 5000 ng/mL of over 250 min.
The molecule `CCCC(=O)OC[C@H]1O[C@@H](n2cc(-c3ccc(S(N)(=O)=O)cc3)nn2)[C@H](OC(=O)CCC)[C@@H](OC(=O)CCC)[C@@H]1OC(=O)CCC` displayed an Activity on Albumin of 94%. Also, in data set [6], the solubility entry is “Insoluble”. For the same molecule, the inhibitory constant (Ki) on Carbonic anhydrase 2 amounted to 76.3 nM; on Carbonic anhydrase 14, 119 nM; on Carbonic anhydrase 1, 1800 nM; on Carbonic anhydrase 9 it was 633 nM; at Carbonic anhydrase 12, 50.2 nM. The half-life at 5000 ng/mL in [1] was found to be 25 min.
On Albumin, `CCC(=O)OC[C@H]1O[C@@H](n2cc(-c3ccc(S(N)(=O)=O)cc3)nn2)[C@H](OC(=O)CC)[C@@H](OC(=O)CC)[C@@H]1OC(=O)CC` gave an Activity of 77%. The Ki on Carbonic anhydrase 2 was 71.1 nM; on Carbonic anhydrase 14, 256 nM; on Carbonic anhydrase 1, 2020 nM; at Carbonic anhydrase 9, 475 nM; at Carbonic anhydrase 12 it was 7.4 nM. The recovery at 1.5 h, 8 µM in data set [7] came to 47%. This molecule returned a half-life at 5000 ng/mL in [1] of 3 min.
For `CC(=O)OC[C@H]1O[C@@H](n2cc(-c3ccc(S(N)(=O)=O)cc3)nn2)[C@H](OC(C)=O)[C@@H](OC(C)=O)[C@H]1OC(C)=O`, the Ki on Carbonic anhydrase 14 was determined as 15.8 nM; at Carbonic anhydrase 12 it was 9.7 nM.
